From US20110104256A1, “METHODS FOR TREATING OR PREVENTING COLORECTAL CANCER” (priority 2008, published 2011)
Marks after values point to notes of the source that are not given here.

System: WiDr human colorectal adenocarcinoma cells
Assay: Inhibition of colorectal tumor growth in WiDr xenograft model
Format: in vivo, nude mouse (nu/nu)
Details: for % Growth Inhibition: WiDr xenograft, nude mice
From the text: In these experiments, 5 million WiDr human colorectal adenocarcinoma cells, mixed 1:1 with Matrigel, were inoculated subcutaneously to the flank of each nude mouse (nu/nu).

[1] = Day 10 post inoculation, 0.5 mg anti-IGF1R IP 2x/week, 40 mpk Sunitinib PO QD (Table 6)
[2] = Day 14 post inoculation, 0.5 mg anti-IGF1R IP 2x/week, 40 mpk Sunitinib PO QD (Table 6)
[3] = Day 17 post inoculation, 0.5 mg anti-IGF1R IP 2x/week, 40 mpk Sunitinib PO QD (Table 6)
[4] = Day 21 post inoculation, 0.5 mg anti-IGF1R IP 2x/week, 40 mpk Sunitinib PO QD (Table 6)
[5] = Day 24 post inoculation, 0.5 mg anti-IGF1R IP 2x/week, 40 mpk Sunitinib PO QD (Table 6)
[6] = Day 28 post inoculation, 0.5 mg anti-IGF1R IP 2x/week, 40 mpk Sunitinib PO QD (Table 6)
[7] = Day 35 post inoculation, 0.5 mg anti-IGF1R IP 2x/week, 40 mpk Sunitinib PO QD (Table 6)
[8] = 0.5 mg anti-IGF1R IP 2x/week, 40 mpk Sunitinib PO QD (Table 5)

## CCN(CC)CCNC(=O)c1c(C)[nH]c(/C=C2\C(=O)Nc3ccc(F)cc32)c1C [Sunitinib, sunitinib, reference compound]
[1]
  Mean tumor volume: 95.8 mm^3
[2]
  Mean tumor volume: 125.4 mm^3
[3]
  Mean tumor volume: 143.1 mm^3
[4]
  Mean tumor volume: 175.6 mm^3
[5]
  Mean tumor volume: 194.8 mm^3
[6]
  Mean tumor volume: 205.9 mm^3
[7]
  Mean tumor volume: 238.6 mm^3
[8]
  % Growth Inhibition: 79^a %

## anti-IGF1R: anti-IGF1R antibody with 15H12/19D12 immunoglobulin light chain-F (LCF, κ) and heavy chain-A (HCA, γ1)
[1]
  Mean tumor volume: 93.1 mm^3
Day 10 post inoculation, 0.5 mg anti-IGF1R, 10 mpk Leucovorin/60 mpk 5-FU, IP 2x/week (Table 3)
  Mean tumor volume: 93.1 mm^3
[2]
  Mean tumor volume: 148.0 mm^3
Day 14 post inoculation, 0.5 mg anti-IGF1R, 10 mpk Leucovorin/60 mpk 5-FU, IP 2x/week (Table 3)
  Mean tumor volume: 148.0 mm^3
[3]
  Mean tumor volume: 192.0 mm^3
Day 17 post inoculation, 0.5 mg anti-IGF1R, 10 mpk Leucovorin/60 mpk 5-FU, IP 2x/week (Table 3)
  Mean tumor volume: 192.0 mm^3
[4]
  Mean tumor volume: 254.1 mm^3
Day 21 post inoculation, 0.5 mg anti-IGF1R, 10 mpk Leucovorin/60 mpk 5-FU, IP 2x/week (Table 3)
  Mean tumor volume: 254.1 mm^3
[5]
  Mean tumor volume: 317.0 mm^3
Day 24 post inoculation, 0.5 mg anti-IGF1R, 10 mpk Leucovorin/60 mpk 5-FU, IP 2x/week (Table 3)
  Mean tumor volume: 317.0 mm^3
[6]
  Mean tumor volume: 403.1 mm^3
Day 28 post inoculation, 0.5 mg anti-IGF1R, 10 mpk Leucovorin/60 mpk 5-FU, IP 2x/week (Table 3)
  Mean tumor volume: 403.1 mm^3
Day 31 post inoculation, 0.5 mg anti-IGF1R IP 2x/week, 40 mpk Sunitinib PO QD (Table 6)
  Mean tumor volume: 474.5 mm^3
Day 31 post inoculation, 0.5 mg anti-IGF1R, 10 mpk Leucovorin/60 mpk 5-FU, IP 2x/week (Table 3)
  Mean tumor volume: 474.5 mm^3
[7]
  Mean tumor volume: 577.6 mm^3
Day 35 post inoculation, 0.5 mg anti-IGF1R, 10 mpk Leucovorin/60 mpk 5-FU, IP 2x/week (Table 3)
  Mean tumor volume: 577.6 mm^3
[8]
  % Growth Inhibition: 30%
0.5 mg anti-IGF1R IP 2x/week, 60 mpk 5-FU/10 mpk Leucovorin IP 2x/week (Table 2)
  % Growth Inhibition: 30%
